Results reported in ChEMBL document CHEMBL1201862, “PubChem BioAssay data set” (2004).
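Five compound concentrations were applied to cells in 96-well plates for 48 hours; endpoints were derived by simple linear interpolation of the resulting dose-response curve. Abbreviation: GI50, concentration required for 50% inhibition of growth.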 Active and inactive are the calls of the source. Cut-off read from the data, not from the text of the source: active = GI50 up to about 1.1 µM and inactive = higher.

Experiments:
Assay in all cases: growth of human tumour cells (NCI), 48 h
SR = tested on: SR
TK-10 = tested on: TK-10
OVCAR-5 = tested on: OVCAR-5
OVCAR-3 = tested on: OVCAR-3
M14 = tested on: M14
CAKI-1 = tested on: CAKI-1
OVCAR-4 = tested on: OVCAR-4
KM12 = tested on: KM12
RPMI-8226 = tested on: RPMI-8226
NCI-H226 = tested on: NCI-H226
SW-620 = tested on: SW-620
CCRF-CEM = tested on: CCRF-CEM
NCI-H23 = tested on: NCI-H23
HT-29 = tested on: HT-29
NCI-H460 = tested on: NCI-H460
NCI/ADR-RES = tested on: NCI/ADR-RES
A498 = tested on: A498
HCT-15 = tested on: HCT-15

Row | Compound | GI50 (SR) | GI50 (TK-10) | GI50 (OVCAR-5) | GI50 (OVCAR-3) | GI50 (M14) | GI50 (CAKI-1) | GI50 (OVCAR-4) | GI50 (KM12) | GI50 (RPMI-8226) | GI50 (NCI-H226) | GI50 (SW-620) | GI50 (CCRF-CEM) | GI50 (NCI-H23) | GI50 (HT-29) | GI50 (NCI-H460) | GI50 (NCI/ADR-RES) | GI50 (A498) | GI50 (HCT-15)
1 | C[C@@H]1[C@@H](c2ccccc2)O[B-](c2ccccc2)(c2ccccc2)N1C | 21.7 µM (inactive) | 32.8 µM (inactive) | 74.3 µM (inactive) | 35.9 µM (inactive) | 28.4 µM (inactive) | 27.9 µM (inactive) | 72.1 µM (inactive) | 52.1 µM (inactive) | 32 µM (inactive) | 36.5 µM (inactive) | 50.8 µM (inactive) | 12.9 µM (inactive) | 35.6 µM (inactive) | 85.9 µM (inactive) | 45.2 µM (inactive) | 54.5 µM (inactive) | 34.8 µM (inactive) | 40.2 µM
2 | CC(=O)NC1C(OCc2ccccc2)OC(CO)C(O)C1OCC(=O)N[C@@H](C)C(=O)N[C@H](CCC(=O)NCCCCNc1c2ccccc2nc2cccc([N+](=O)[O-])c12)C(N)=O (stereo not given in full) | 1.07 µM (active) | 1.47 µM (inactive) | 3.56 µM (inactive) | 3.5 µM (inactive) | 2.23 µM (inactive) | 1.49 µM (inactive) | 0.957 µM (active) | 1.83 µM (inactive) | 1.64 µM (inactive) | 1.84 µM (inactive) | 0.618 µM (active) | 4.11 µM (inactive) | 0.984 µM (active) | 1.18 µM (inactive) | 0.48 µM (active) | 16.7 µM (inactive) | 2.16 µM (inactive) | 1.97 µM
3 | COc1ccc(CNC(C)C(=O)O)cc1 (stereo not given) | > 100 µM (inactive) | > 100 µM (inactive) | > 100 µM (inactive) | > 100 µM (inactive) | > 100 µM (inactive) | > 100 µM (inactive) | > 100 µM (inactive) | > 100 µM (inactive) | > 100 µM (inactive) | > 100 µM (inactive) | > 100 µM (inactive) | 19.7 µM (inactive) | > 100 µM (inactive) | > 100 µM (inactive) | > 100 µM (inactive) | > 100 µM (inactive) | > 100 µM (inactive) | > 100 µM
4 | O=C(NO)c1ccc(OCc2cccc(Cl)c2)cc1 | 2.16 µM (inactive) | 11.6 µM (inactive) | 6.15 µM (inactive) | 4.55 µM (inactive) | 12.9 µM (inactive) | 6.65 µM (inactive) | 8.95 µM (inactive) | 11.9 µM (inactive) | 3.27 µM (inactive) | 11.9 µM (inactive) | 5.08 µM (inactive) | 2.66 µM (inactive) | 5.3 µM (inactive) | 8.45 µM (inactive) | 4.58 µM (inactive) | 2.13 µM (inactive) | 4.81 µM (inactive) | 4.57 µM
5 | Nc1nc(Cl)c2ncn(Cc3ccccc3CCl)c2n1 | 3.34 µM (inactive) | 17.7 µM (inactive) | 19.9 µM (inactive) | 3.37 µM (inactive) | 5.73 µM (inactive) | 6.65 µM (inactive) | 2.48 µM (inactive) | 15.7 µM (inactive) | 11.3 µM (inactive) | 2.64 µM (inactive) | 3.3 µM (inactive) | 17.7 µM (inactive) | 3.03 µM (inactive) | 3.85 µM (inactive) | 5.66 µM (inactive) | 4.52 µM (inactive) | 20.5 µM (inactive) | 2.69 µM
6 | CCc1c[n+]2c(cc1C1=CN3c4ccccc4[C@]45CCN6C/C(=C/CO)[C@H](C[C@H]64)[C@@H]([C@@H]1O)[C@H]35)-c1[nH]c3ccccc3c1CC2 | > 50 µM (inactive) | > 50 µM (inactive) | > 50 µM (inactive) | > 50 µM (inactive) | > 50 µM (inactive) | > 50 µM (inactive) | > 50 µM (inactive) | > 50 µM (inactive) | > 50 µM (inactive) | > 50 µM (inactive) | > 50 µM (inactive) | > 50 µM (inactive) | > 50 µM (inactive) | > 50 µM (inactive) | > 50 µM (inactive) | > 50 µM (inactive) | > 50 µM (inactive) | > 50 µM
7 | O=c1ccn2n1Cc1ccccc1C2 | > 100 µM (inactive) | > 100 µM (inactive) | > 100 µM (inactive) | > 100 µM (inactive) | > 100 µM (inactive) | > 100 µM (inactive) | > 100 µM (inactive) | > 100 µM (inactive) | > 100 µM (inactive) | > 100 µM (inactive) | > 100 µM (inactive) | > 100 µM (inactive) | > 100 µM (inactive) | > 100 µM (inactive) | > 100 µM (inactive) | > 100 µM (inactive) | > 100 µM (inactive) | > 100 µM
8 | COc1ccc2c(c1OC)C(=O)O[C@@H]2[C@H]1c2cc3c(cc2CCN1C)OCO3 | > 100 µM (inactive) | > 100 µM (inactive) | > 100 µM (inactive) | > 100 µM (inactive) | > 100 µM (inactive) | > 100 µM (inactive) | > 100 µM (inactive) | > 100 µM (inactive) | > 100 µM (inactive) | > 100 µM (inactive) | > 100 µM (inactive) | > 10 µM (inactive) | > 100 µM (inactive) | > 100 µM (inactive) | > 100 µM (inactive) | > 100 µM (inactive) | > 100 µM (inactive) | > 100 µM
9 | CC(C)(CCC(C)(C)c1ccccc1)c1ccccc1 | 21 µM (inactive) | 21.6 µM (inactive) | 18.8 µM (inactive) | 16.3 µM (inactive) | 18.7 µM (inactive) | 22.5 µM (inactive) | 16.4 µM (inactive) | 15.3 µM (inactive) | 15.1 µM (inactive) | 20.7 µM (inactive) | 17.2 µM (inactive) | 18.4 µM (inactive) | 18.2 µM (inactive) | 14.5 µM (inactive) | 17.2 µM (inactive) | 19.5 µM (inactive) | 17.9 µM (inactive) | 20.9 µM
10 | CC[P+](C#Cc1ccccc1)(c1ccccc1)c1ccccc1 | 2.33 µM (inactive) | 1.58 µM (inactive) | 4.06 µM (inactive) | 1.31 µM (inactive) | 1.66 µM (inactive) | 9.66 µM (inactive) | 3.15 µM (inactive) | 1.22 µM (inactive) | 0.242 µM (active) | 2.82 µM (inactive) | 1.17 µM (inactive) | 0.358 µM (active) | 2.17 µM (inactive) | 2.43 µM (inactive) | 3 µM (inactive) | 38.9 µM (inactive) | 8.17 µM (inactive) | 3.19 µM
11 | CCC(O)(Cc1ccc(OC)cc1)c1ccc(OC)cc1 (stereo not given) | 0.0641 µM (active) | > 100 µM (inactive) | > 100 µM (inactive) | > 100 µM (inactive) | > 100 µM (inactive) | > 100 µM (inactive) | 84.7 µM (inactive) | > 100 µM (inactive) | > 100 µM (inactive) | > 100 µM (inactive) | > 100 µM (inactive) | > 100 µM (inactive) | > 100 µM (inactive) | > 100 µM (inactive) | > 100 µM (inactive) | > 100 µM (inactive) | > 100 µM (inactive) | > 100 µM
12 | C/N=C/N(C)c1c2ccccc2nc2ccccc12 | > 100 µM (inactive) | > 100 µM (inactive) | > 100 µM (inactive) | > 100 µM (inactive) | > 100 µM (inactive) | > 100 µM (inactive) | > 100 µM (inactive) | > 100 µM (inactive) | > 100 µM (inactive) | > 100 µM (inactive) | > 100 µM (inactive) | > 100 µM (inactive) | > 100 µM (inactive) | > 100 µM (inactive) | > 100 µM (inactive) | > 100 µM (inactive) | > 100 µM (inactive) | > 100 µM
13 | N#CCN(Cc1ccccc1)[C@@H]1CCC[C@]1(O)C#Cc1ccc2c(c1)OCO2 | 17.8 µM (inactive) | 21.1 µM (inactive) | 16.1 µM (inactive) | 14.9 µM (inactive) | 16.8 µM (inactive) | 22.2 µM (inactive) | 15 µM (inactive) | 15.2 µM (inactive) | 16 µM (inactive) | 18.6 µM (inactive) | 22.5 µM (inactive) | 17.6 µM (inactive) | 16.4 µM (inactive) | 18.2 µM (inactive) | 16.1 µM (inactive) | 19.5 µM (inactive) | 20.3 µM (inactive) | 21.8 µM
14 | CC1=C2CC(C)(C)/C=C\C(=O)/C(C)=C\C3=C[C@H](C)C[C@]3(O2)C1=O | 0.243 µM (active) | 2.03 µM (inactive) | 1.32 µM (inactive) | 0.376 µM (active) | 0.494 µM (active) | 0.255 µM (active) | 1.52 µM (inactive) | 2.21 µM (inactive) | 0.326 µM (active) | 3.46 µM (inactive) | 0.41 µM (active) | 0.138 µM (active) | 1.08 µM (active) | 0.927 µM (active) | 4.71 µM (inactive) | 0.537 µM (active) | 4.67 µM (inactive) | 0.627 µM
15 | O=C(C=P(c1ccccc1)(c1ccccc1)c1ccccc1)c1ccc(-c2cccc([N+](=O)[O-])c2)cc1 | 3.69 µM (inactive) | 3.23 µM (inactive) | 3.61 µM (inactive) | 2.98 µM (inactive) | 2.05 µM (inactive) | 2.74 µM (inactive) | 2.61 µM (inactive) | 3.85 µM (inactive) | 1.87 µM (inactive) | 5.01 µM (inactive) | 3.91 µM (inactive) | 2.79 µM (inactive) | 4.36 µM (inactive) | 1.75 µM (inactive) | 1.91 µM (inactive) | 3.6 µM (inactive) | 3.02 µM (inactive) | 3.94 µM
